Active and inactive are the calls of the source.
Key:
[1] = molecular target: T1, Sentrin-specific protease 7 (Homo sapiens, UniProt Q9BQF6); assay: inhibition of human SENP7 cleavage activity – biochemical, luminescence, set 2, SAR follow-up (AID 588600); format: functional
T1 sequence (Q9BQF6 whole entry): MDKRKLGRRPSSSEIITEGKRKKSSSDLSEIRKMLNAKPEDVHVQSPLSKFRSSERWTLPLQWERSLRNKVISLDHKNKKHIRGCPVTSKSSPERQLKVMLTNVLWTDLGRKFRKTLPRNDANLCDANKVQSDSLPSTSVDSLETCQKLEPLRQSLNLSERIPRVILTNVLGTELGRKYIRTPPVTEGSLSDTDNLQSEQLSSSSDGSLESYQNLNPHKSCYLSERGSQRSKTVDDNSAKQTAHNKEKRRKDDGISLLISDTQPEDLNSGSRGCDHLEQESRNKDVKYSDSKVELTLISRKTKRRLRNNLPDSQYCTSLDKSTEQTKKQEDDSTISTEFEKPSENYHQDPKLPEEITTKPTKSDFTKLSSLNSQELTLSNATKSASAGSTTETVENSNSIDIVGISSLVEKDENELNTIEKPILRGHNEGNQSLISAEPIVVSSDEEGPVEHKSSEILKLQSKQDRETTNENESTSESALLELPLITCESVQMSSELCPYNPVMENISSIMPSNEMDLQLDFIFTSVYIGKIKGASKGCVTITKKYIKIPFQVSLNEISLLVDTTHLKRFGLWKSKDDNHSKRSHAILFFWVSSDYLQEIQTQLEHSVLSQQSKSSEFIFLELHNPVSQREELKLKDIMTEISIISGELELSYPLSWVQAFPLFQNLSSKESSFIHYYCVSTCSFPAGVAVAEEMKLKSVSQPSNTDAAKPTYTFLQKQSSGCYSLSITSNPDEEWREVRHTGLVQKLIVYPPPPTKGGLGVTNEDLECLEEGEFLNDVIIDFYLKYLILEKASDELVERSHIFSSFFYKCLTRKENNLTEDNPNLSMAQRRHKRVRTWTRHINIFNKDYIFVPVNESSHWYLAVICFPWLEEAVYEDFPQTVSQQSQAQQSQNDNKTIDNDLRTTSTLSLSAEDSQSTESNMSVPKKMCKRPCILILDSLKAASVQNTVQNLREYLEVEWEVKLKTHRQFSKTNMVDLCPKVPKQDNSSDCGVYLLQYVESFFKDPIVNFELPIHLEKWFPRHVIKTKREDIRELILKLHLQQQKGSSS

[2] = molecular target: T2, Sentrin-specific protease 8 (Homo sapiens, UniProt Q96LD8); assay: inhibition of sentrin protease 8 – biochemical, luminescence, set 2, SAR follow-up (AID 588601); format: functional
T2 sequence (Q96LD8 whole entry): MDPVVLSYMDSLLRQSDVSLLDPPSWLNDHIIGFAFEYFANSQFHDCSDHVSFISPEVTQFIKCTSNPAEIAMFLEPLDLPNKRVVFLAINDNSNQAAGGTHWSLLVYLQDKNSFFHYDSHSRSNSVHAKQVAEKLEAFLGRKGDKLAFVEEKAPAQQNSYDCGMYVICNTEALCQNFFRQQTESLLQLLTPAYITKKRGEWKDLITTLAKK

Caspase-3 = molecular target: T3, Caspase-3 (Homo sapiens, UniProt P42574); assay: inhibition of recombinant caspase-3 activity – biochemical, luminescence, set 2, selectivity assay for SENP protease inhibitor project, SAR follow-up (AID 588599); format: functional
T3 sequence (P42574 whole entry): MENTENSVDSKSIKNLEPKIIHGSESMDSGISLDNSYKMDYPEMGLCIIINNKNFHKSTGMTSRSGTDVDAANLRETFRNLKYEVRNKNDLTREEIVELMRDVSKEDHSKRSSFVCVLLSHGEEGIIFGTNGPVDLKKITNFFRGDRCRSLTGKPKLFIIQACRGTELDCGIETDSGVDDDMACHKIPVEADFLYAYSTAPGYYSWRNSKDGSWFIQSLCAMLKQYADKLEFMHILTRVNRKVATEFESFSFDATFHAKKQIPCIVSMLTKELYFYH

[3] = molecular target: T4, Sentrin-specific protease 6 (Homo sapiens, UniProt Q9GZR1); assay: inhibition of human SENP6 catalytic domain – biochemical, luminescence, set 2, SAR follow-up (AID 588598); format: functional
T4 sequence (Q9GZR1 whole entry): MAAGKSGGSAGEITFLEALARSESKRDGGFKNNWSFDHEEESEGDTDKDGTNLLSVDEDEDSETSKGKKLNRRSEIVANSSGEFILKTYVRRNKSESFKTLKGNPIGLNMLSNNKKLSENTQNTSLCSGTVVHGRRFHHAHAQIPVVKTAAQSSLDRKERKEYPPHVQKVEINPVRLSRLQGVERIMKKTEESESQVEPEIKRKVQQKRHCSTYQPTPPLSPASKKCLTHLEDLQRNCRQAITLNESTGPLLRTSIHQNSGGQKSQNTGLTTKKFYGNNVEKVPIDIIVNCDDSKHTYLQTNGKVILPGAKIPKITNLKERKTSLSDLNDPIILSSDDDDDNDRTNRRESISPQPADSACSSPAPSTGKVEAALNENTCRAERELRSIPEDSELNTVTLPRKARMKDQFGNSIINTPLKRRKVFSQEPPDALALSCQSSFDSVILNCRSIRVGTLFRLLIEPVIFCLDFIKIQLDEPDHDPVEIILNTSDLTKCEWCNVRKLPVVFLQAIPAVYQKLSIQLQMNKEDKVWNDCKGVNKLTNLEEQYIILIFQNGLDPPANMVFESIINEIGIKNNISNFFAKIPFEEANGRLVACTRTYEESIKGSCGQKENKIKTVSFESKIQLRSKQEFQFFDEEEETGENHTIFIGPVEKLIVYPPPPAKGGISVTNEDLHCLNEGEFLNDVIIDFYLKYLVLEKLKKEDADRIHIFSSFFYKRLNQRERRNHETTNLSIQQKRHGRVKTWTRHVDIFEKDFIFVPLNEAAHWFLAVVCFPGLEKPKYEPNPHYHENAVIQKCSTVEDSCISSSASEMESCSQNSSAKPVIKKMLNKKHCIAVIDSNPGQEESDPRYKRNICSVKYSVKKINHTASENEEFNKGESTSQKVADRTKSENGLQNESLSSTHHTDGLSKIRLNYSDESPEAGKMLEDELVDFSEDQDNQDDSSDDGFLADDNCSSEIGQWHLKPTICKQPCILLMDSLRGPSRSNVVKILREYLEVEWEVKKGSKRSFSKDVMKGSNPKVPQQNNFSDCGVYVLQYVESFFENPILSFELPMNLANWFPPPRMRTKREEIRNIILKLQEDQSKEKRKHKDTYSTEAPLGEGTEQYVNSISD

[4] = molecular target: T5, High affinity choline transporter 1 (Homo sapiens, UniProt Q9GZV3); assay: human choline transporter potentiators, potency – cell-based, 10-point CRC, membrane potential dye, dose response (AID 602376); format: functional
T5 sequence (Q9GZV3 whole entry): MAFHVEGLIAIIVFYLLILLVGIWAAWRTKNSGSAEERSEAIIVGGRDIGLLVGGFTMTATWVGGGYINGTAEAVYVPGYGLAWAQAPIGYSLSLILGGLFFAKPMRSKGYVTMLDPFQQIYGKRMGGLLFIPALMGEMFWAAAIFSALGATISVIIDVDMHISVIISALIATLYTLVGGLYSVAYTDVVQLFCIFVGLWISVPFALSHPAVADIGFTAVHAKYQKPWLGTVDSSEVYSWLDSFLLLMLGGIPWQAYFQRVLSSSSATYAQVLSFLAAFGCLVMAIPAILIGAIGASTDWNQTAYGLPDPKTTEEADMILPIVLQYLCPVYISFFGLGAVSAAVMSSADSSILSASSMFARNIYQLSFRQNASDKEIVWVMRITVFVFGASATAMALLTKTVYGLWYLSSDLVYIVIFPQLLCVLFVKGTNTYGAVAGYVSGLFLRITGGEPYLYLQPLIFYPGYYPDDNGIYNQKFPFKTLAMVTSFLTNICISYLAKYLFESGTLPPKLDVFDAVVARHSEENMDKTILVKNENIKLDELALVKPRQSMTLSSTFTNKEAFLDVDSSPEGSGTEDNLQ

[5] = molecular target: T6, Ubiquitin-conjugating enzyme E2 N (Homo sapiens, UniProt P61088); format: functional;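 further: Dose-response confirmation in a TR-FRET assay detecting UBC13-driven polyubiquitin chain formation, inhibition measured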
T6 sequence (P61088 whole entry): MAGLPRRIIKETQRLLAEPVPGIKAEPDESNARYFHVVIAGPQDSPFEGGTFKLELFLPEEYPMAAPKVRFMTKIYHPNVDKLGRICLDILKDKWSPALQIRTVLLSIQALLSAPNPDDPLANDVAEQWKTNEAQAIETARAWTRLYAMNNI

[6] = molecular target: 72 kDa type IV collagenase (Homo sapiens, UniProt P08253); assay: Dose Response validation of uHTS RPN11 inhibitor hits using a MMP-2 Fluorescence assay.; format: functional
Chain of 72 kDa type IV collagenase (P08253 whole entry): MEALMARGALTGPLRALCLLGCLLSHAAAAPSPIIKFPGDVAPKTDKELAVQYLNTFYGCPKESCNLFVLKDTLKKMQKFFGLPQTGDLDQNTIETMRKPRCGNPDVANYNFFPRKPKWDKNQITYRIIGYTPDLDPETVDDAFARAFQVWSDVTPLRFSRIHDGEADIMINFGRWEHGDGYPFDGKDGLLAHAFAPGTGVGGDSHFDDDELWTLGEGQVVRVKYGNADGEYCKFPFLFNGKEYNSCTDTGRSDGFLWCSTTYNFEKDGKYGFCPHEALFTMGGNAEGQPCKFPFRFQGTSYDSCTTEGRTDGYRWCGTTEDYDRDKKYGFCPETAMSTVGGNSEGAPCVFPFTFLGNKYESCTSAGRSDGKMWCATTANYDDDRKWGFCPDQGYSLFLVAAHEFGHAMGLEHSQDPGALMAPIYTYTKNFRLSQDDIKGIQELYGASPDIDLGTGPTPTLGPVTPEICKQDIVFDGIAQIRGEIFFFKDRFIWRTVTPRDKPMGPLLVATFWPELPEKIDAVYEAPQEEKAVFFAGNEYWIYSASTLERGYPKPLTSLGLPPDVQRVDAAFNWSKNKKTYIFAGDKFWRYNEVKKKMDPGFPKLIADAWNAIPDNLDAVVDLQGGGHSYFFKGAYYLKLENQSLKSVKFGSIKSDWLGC

Prothrombin = Prothrombin (Bos taurus, UniProt P00735); assay: thrombin protease inhibitors – biochemical, fluorescence polarization, uHTS hits, dose response (AID 602369); format: functional
[7] = molecular target: 26S proteasome non-ATPase regulatory subunit 14 (Homo sapiens, UniProt O00487); assay: inhibition of proteasome subunit RPN11 – biochemical, fluorescence polarization, uHTS hits, confirmation (AID 602368); format: functional
Chain of 26S proteasome non-ATPase regulatory subunit 14 (O00487 whole entry): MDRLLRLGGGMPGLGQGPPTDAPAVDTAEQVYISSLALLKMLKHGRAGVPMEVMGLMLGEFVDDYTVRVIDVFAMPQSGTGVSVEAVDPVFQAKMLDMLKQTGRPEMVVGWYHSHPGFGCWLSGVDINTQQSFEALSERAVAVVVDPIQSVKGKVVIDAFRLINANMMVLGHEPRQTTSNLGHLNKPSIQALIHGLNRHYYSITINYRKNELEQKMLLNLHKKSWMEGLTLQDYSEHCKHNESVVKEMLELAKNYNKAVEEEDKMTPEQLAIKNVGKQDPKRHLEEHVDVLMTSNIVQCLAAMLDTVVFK

[8] = molecular target: Multidrug resistance protein CDR1 (Candida albicans, UniProt P43071); assay: inhibition of Nile Red efflux via Candida CDR1 – S. cerevisiae AD1-8u, singleplex, Cherry Pick1 hits, dose response (AID 588606); format: functional
Chain of Multidrug resistance protein CDR1 (P43071 whole entry, looked up): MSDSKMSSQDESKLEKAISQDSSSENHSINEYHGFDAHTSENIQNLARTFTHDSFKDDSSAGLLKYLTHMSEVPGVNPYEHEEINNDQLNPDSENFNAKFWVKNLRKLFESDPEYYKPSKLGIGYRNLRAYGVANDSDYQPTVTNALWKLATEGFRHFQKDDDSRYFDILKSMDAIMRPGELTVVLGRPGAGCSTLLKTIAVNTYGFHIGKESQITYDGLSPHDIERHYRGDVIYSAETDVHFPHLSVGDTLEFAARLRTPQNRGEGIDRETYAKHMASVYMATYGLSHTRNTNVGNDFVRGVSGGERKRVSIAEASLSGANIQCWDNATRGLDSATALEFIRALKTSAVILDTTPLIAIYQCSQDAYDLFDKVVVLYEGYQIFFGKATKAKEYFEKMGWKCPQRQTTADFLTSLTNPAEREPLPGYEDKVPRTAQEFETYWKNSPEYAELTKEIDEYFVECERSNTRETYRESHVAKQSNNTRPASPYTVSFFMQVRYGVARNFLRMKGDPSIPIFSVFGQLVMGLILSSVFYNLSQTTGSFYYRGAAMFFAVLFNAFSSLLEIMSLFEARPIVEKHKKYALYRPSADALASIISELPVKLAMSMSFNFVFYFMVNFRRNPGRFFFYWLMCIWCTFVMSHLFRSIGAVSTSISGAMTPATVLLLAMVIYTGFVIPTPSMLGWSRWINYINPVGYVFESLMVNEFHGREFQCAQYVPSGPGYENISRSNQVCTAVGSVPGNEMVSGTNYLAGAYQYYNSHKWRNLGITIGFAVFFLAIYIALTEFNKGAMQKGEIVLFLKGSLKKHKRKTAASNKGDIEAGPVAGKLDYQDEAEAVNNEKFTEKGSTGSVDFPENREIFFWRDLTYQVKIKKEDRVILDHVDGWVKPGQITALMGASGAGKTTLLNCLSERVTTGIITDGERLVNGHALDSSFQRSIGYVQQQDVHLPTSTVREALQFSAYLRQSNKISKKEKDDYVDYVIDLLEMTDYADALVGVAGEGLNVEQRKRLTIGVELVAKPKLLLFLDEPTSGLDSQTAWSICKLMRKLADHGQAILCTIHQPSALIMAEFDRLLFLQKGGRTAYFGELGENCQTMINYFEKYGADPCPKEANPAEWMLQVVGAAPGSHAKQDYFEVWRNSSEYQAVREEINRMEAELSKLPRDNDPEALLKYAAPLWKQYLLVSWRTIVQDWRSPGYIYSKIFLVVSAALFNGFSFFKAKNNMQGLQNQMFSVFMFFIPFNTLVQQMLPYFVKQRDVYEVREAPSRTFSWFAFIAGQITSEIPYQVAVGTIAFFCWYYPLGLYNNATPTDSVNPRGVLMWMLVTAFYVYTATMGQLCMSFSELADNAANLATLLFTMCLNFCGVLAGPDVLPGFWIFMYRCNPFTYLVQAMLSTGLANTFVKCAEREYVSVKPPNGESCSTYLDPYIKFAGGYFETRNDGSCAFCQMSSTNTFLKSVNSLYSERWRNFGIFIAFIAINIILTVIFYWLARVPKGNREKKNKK

[9] = suppression of NO production in INS-1E cells – cell-based, Griess absorbance, dry powder, set 3, dose response (AID 488870); format: functional; conditions: Rattus norvegicus
INS1 [10] = assay: INS-1E mitochondrial potential rescue under cytokines – cell-based, JC-1 fluorescence ratio, dry powder, dose response (AID 488931); format: functional; conditions: Rattus norvegicus
INS1 [11] = assay: suppression of NO production in INS-1E cells – cell-based, Griess absorbance, dry powder, set 2, dose response (AID 488868); format: functional; conditions: Rattus norvegicus
INS1 [12] = assay: beta-cell survival under cytokine stress – INS-1E, ATP luminescence, dry powder, dose response (AID 488844); format: functional, cell-based; conditions: Rattus norvegicus
[13] = Reduced DLD-1 viability, concentration-response, CellTiter-Glo luminescence (AID 1117352); format: functional
[14] = CellTiter-Glo luminescence survival assay, SW480 colon tumor line, concentration-response curve, half-maximal inhibitory concentration (AID 1117338); format: functional
[15] = rise of 2N DNA cells, HeLa – IC50, dose response (AID 1117349); format: functional, cell-based
[16] = molecular target: Heat shock protein HSP 90-alpha (Homo sapiens, UniProt P07900); format: functional, organism-based
[17] = rise of 4N DNA cells, HeLa – IC50, dose response (AID 1117351); format: functional, cell-based
[18] = SNU-C1 cell viability reduction, dose response, CellTiter-Glo luminescence (AID 1117323); format: functional, cell-based
[19] = cytotoxicity toward HT-29 cells – cell-based, CellTiter-Glo luminescence, IC50, dose response (AID 1117330); format: functional
[20] = HPDE-C7 pancreatic duct cell viability loss – fluorescence, HTS (AID 430); format: functional, cell-based; conditions: Homo sapiens
[21] = viability loss of HPDE-C7K cells – cell-based, fluorescence, HTS, primary screen (AID 431); format: functional; conditions: Homo sapiens
[22] = RKO cell viability reduction, dose response, CellTiter-Glo luminescence (AID 1117322); format: functional
[23] = cytotoxicity toward Colo320 cells – cell-based, CellTiter-Glo luminescence, IC50, dose response (AID 1117334); format: functional; conditions: COLO 320
HSP90 = HSP90 (Plasmodium falciparum 3D7, UniProt Q8IL32); format: functional, organism-based
Chain of HSP90 (Q8IL32 whole entry): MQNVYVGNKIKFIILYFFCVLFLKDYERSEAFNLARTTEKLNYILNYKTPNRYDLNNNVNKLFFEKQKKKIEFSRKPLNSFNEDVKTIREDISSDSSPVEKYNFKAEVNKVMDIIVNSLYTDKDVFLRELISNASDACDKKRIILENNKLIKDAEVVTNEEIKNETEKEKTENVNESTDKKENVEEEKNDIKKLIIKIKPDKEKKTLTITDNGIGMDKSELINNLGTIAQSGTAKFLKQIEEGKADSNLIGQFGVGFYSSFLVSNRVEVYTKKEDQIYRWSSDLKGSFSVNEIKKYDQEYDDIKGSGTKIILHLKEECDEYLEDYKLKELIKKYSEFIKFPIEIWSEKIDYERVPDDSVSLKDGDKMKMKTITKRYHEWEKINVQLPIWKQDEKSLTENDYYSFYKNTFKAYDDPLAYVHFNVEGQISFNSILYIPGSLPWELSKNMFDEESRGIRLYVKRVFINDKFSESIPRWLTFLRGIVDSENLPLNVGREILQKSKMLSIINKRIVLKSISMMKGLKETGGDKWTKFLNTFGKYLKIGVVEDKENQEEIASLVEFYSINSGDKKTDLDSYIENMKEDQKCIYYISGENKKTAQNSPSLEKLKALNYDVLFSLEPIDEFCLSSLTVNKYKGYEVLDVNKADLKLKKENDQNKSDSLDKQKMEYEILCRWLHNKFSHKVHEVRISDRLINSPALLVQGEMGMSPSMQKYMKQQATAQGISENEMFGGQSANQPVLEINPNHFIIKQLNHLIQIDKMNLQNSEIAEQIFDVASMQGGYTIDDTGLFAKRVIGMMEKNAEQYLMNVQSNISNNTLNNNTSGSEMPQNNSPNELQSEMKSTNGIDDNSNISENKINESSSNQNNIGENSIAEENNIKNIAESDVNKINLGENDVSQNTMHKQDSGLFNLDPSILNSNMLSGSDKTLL

[24] = cytotoxicity toward HCT116 cells – cell-based, CellTiter-Glo luminescence, IC50, dose response (AID 1117332); format: functional; conditions: HCT-116
Paired box protein Pax-8 = Paired box protein Pax-8 (Homo sapiens, UniProt Q06710); assay: PAX8 transcriptional activity inhibition in RMG-I – RMG-I cells, luciferase, cherry-pick, dose response (AID 687027); format: functional, cell-based;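 further: luciferase reporter driven by Pax8 target thyroperoxidase promoter measured by SteadyGlo luminescence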
Chain of Paired box protein Pax-8 (Q06710 whole entry): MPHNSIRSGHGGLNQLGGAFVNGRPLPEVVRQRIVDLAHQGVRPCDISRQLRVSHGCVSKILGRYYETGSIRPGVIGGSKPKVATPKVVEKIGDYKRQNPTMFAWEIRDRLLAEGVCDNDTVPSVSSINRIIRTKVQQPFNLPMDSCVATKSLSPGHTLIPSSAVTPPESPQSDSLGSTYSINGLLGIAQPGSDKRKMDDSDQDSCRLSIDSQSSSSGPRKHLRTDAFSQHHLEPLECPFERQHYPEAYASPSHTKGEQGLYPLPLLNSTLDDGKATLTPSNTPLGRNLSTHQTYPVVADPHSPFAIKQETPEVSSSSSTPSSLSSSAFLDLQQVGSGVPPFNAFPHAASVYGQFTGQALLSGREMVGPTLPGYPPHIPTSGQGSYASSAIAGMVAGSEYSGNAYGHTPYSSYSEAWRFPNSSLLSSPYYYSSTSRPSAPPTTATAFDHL

Structure (SMILES): Cc1[nH]c2ccccc2c1C(=O)C(=O)N1CCC2(CC1)OCCO2
- IC50 [1]: > 99 µM (inactive)
- IC50 [2]: > 99 µM (inactive)
- IC50 (Caspase-3): > 99 µM (inactive)
- IC50 [3]: > 99 µM (inactive)

Structure (SMILES): O=C(CCC1CCCCC1)NCCN1C2=NC[C@H](Cc3ccccc3)N2C[C@H]1Cc1ccc(O)cc1
- EC50 [4]: 13.4 µM (active)
- IC50 [5]: > 20 µM (inactive)

Structure (SMILES): CCc1c(O)n(C2CCCCC2)c(SCC(=O)Nc2ccc(C)cc2)nc1=O
- IC50 [6]: 20.6 µM (active)
- IC50 (Prothrombin): 45.4 µM (active)
- IC50 [7]: 38.3 µM (active)

Structure (SMILES): Cc1ccc(OCc2cc(C(=O)NCC(C)(C)N3CCOCC3)no2)cc1C
- EC50 [8]: 0.001 µM (active)

Structure (SMILES): C[C@@H]1CN([C@@H](C)CO)C(=O)c2cccc(NC(=O)Nc3cccc(Cl)c3Cl)c2O[C@H]1CN(C)S(=O)(=O)c1ccc2c(c1)OCCO2
- AC50 [9]: 68.8 µM (active)
- AC50 (INS1 [10]): 71.3 µM (active)
- AC50 (INS1 [11]): 29.3 µM (active)
- AC50 (INS1 [12]): 15.2 µM (active)

Structure (SMILES): Oc1c(I)cc(I)c2cccnc12 [IODOQUINOL]
- IC50 [13]: 0.0178 µM (active)
- IC50 [14]: 0.0036 µM (active)
- IC50 [15]: > 10 µM (inactive)
- AC50 [16]: 0.391 µM (active)
- IC50 [17]: > 10 µM (inactive)
- IC50 [18]: 0.0387 µM (active)
- IC50 [19]: 0.705 µM (active)
- EC50 [20]: 17.1 µM (active)
- EC50 [21]: 7.36 µM (active)
- IC50 [22]: 0.0227 µM (active)
- IC50 [23]: 0.0213 µM (active)
- AC50 (HSP90): 0.314 µM (active)
- IC50 [24]: 0.041 µM (active)
- AC50 (Paired box protein Pax-8): 4.87 µM (active)
